Experimental data as given in ChEMBL document CHEMBL4393720, “Design, synthesis and biological evaluation of bromophenol-thiazolylhydrazone hybrids inhibiting the interaction of translation initiation factors eIF4E/eIF4G as multifunctional agents for cancer treatment” (Eur J Med Chem, 2019).
The source made the active and inactive calls. The rule behind the calls is not given here.

Columns and labels:
Caco-2 = test: Antiproliferative activity against human Caco2 cells assessed as inhibition of cell growth incubated for 48 hrs by MTT assay; assay type: functional, cell-based; details: Caco-2, 48 h
HepG2 = test: Antiproliferative activity against human HepG2 cells assessed as inhibition of cell growth incubated for 48 hrs by MTT assay; assay type: functional, cell-based; details: HepG2, 48 h
A549 [1] = test: Inhibition of eIF4E/eIF4G interaction in human A549 cells incubated for 48 hrs by m7GTP pull down assay; assay type: cell-based
[2] = target: Eukaryotic translation initiation factor 4E (Homo sapiens) (UniProt P06730); test: Inhibition of eIF4E phosphorylation in human A549 cells incubated for 48 hrs by immunofluorescence method; assay type: cell-based
[3] = target: Eukaryotic translation initiation factor 4E (Homo sapiens) (UniProt P06730); test: Inhibition of eIF4E phosphorylation in human A549 cells assessed as decrease in cyclin D1 level at 1 to 5 uM incubated for 48 hrs by western blot analysis; assay type: cell-based
[4] = Inhibition of PI3K/AKT/mTOR in human A549 cells assessed as decrease in 4EBP1 phosphorylation at 1 to 5 uM incubated for 48 hrs by western blot analysis; assay type: cell-based
[5] = Inhibition of PI3K/Akt/mTOR signalling pathway in human A549 cells assessed as reduction in PI3K phosphorylation at 1 to 5 uM incubated for 48 hrs by Western blot analysis; assay type: cell-based
[6] = Inhibition of PI3K/Akt/mTOR signalling pathway in human A549 cells assessed as reduction in mTOR phosphorylation at 1 to 5 uM incubated for 48 hrs by Western blot analysis; assay type: cell-based
A549 [7] = test: Induction of autophagy in human A549 cells assessed as change in […] expression at 1 to 5 uM incubated for 48 hrs by Western blot analysis; assay type: functional, cell-based
A549 [8] = test: Induction of autophagy in human A549 cells assessed as change in ULK1 expression at 1 to 5 uM incubated for 48 hrs by Western blot analysis; assay type: functional, cell-based
A549 [9] = test: Induction of apoptosis in human A549 cells assessed as nuclear shrinkage and chromatin condensation at 1 to 5 uM incubated for 48 hrs by Hoechst 33258 staining based fluorescence microscopy; assay type: functional, cell-based
A549 [10] = test: Induction of apoptosis in human A549 cells assessed as activation of caspase 3 at 1 to 5 uM incubated for 48 hrs by Western blot analysis; assay type: functional, cell-based
A549 [11] = test: Antitumor activity against human A549 cells xenografted in athymic nude mouse assessed as decrease in tumor growth at 25 mg/kg, ip administered once daily for 21 days; assay type: functional; details: 504 h
[12] = Toxicity in athymic nude mouse xenografted with human A549 cells assessed as changes in body weight at 25 to 50 mg/kg, ip administered once daily for 21 days; assay type: organism-based; details: in vivo, 504 h
A549 [13] = test: In vivo inhibition of PI3K/Akt/mTOR in human A549 cells xenografted in athymic nude mouse assessed as decrease in phosphorylation of 4EBP1 at 25 to 50 mg/kg, ip administered once daily for 21 days by Western blot analysis; assay type: functional, organism-based
A549 [14] = test: Decrease in phosphorylation of Ki67 in human A549 cells xenografted in athymic nude mouse at 25 to 50 mg/kg, ip administered once daily for 21 days by immunocytochemistry; assay type: functional, organism-based
A549 [15] = test: Antitumor activity against human A549 cells xenografted in athymic nude mouse assessed as necrosis of tumor cells and loosely packed cells at 25 to 50 mg/kg, ip administered once daily for 21 days by hematoxylin and eosin staining based microscopic analysis; assay type: functional, organism-based
A549 [16] = test: In vivo inhibition of PI3K/Akt/mTOR signalling pathway in human A549 cells xenografted in athymic nude mouse assessed as decrease in phosphorylation of PI3K at 25 to 50 mg/kg, ip administered once daily for 21 days by Western blot analysis; assay type: functional, organism-based
A549 [17] = test: In vivo inhibition of PI3K/Akt/mTOR signalling pathway in human A549 cells xenografted in athymic nude mouse assessed as decrease in phosphorylation of Akt at 25 to 50 mg/kg, ip administered once daily for 21 days by Western blot analysis; assay type: functional, organism-based
[18] = Acute toxicity in SPF Kunming mouse assessed as mortality at 500 to 2000 mg/kg, po administered as single dose measured for 14 days; assay type: organism-based; details: in vivo, 336 h
[19] = Acute toxicity in SPF Kunming mouse assessed as body weight at 2000 mg/kg, po administered as single dose measured at day 14 (reference value: 34.7g); assay type: organism-based; details: in vivo
[20] = Subacute toxicity in SPF Kunming mouse assessed as mortality at 2000 mg/kg, po administered once a day for 14 days; assay type: organism-based; details: in vivo, 336 h
[21] = Subacute toxicity in SPF Kunming mouse assessed as body weight at 2000 mg/kg, po administered once a day for 7 days (reference value: 28.4g); assay type: organism-based; details: in vivo, 168 h
[22] = Toxicity in athymic nude mouse xenografted with human A549 cells assessed as effect on liver morphological changes at 25 to 50 mg/kg, ip administered once daily for 21 days by H and E staining based assay; assay type: organism-based; details: in vivo, 504 h
[23] = Toxicity in athymic nude mouse xenografted with human A549 cells assessed as effect on spleen morphological changes at 25 to 50 mg/kg, ip administered once daily for 21 days by H and E staining based assay; assay type: organism-based; details: in vivo, 504 h
[24] = Toxicity in athymic nude mouse xenografted with human A549 cells assessed as effect on heart morphological changes at 25 to 50 mg/kg, ip administered once daily for 21 days by H and E staining based assay; assay type: organism-based; details: in vivo, 504 h
[25] = Cmax in male Sprague-Dawley rat at 2 mg/kg, iv measured up to 24 hrs by LC/MS-MS analysis; assay type: ADME, organism-based; design: dose 2 mg/kg, route intravenous; details: in vivo
[26] = Total plasma clearance in male Sprague-Dawley rat at 2 mg/kg, iv measured up to 24 hrs by LC/MS-MS analysis; assay type: ADME, organism-based
[27] = Half life in female Sprague-Dawley rat at 2 mg/kg, iv measured up to 24 hrs by LC/MS-MS analysis; assay type: ADME, organism-based; details: in vivo
[28] = MRT in female Sprague-Dawley rat at 2 mg/kg, iv measured up to 24 hrs by LC/MS-MS analysis; assay type: ADME, organism-based; details: in vivo
[29] = AUC (0 to 24 hrs) in male Sprague-Dawley rat at 10 mg/kg, po measured up to 24 hrs by LC/MS-MS analysis; assay type: ADME, organism-based; design: time < 24 hr, dose 10 mg/kg, route oral; details: in vivo
[30] = Half life in male Sprague-Dawley rat at 10 mg/kg, po measured up to 24 hrs by LC/MS-MS analysis; assay type: ADME, organism-based; details: in vivo
A549 [31] = test: In vivo inhibition of eIF4E in human A549 cells xenografted in athymic nude mouse assessed as decrease in phosphorylation of eIF4E at 25 to 50 mg/kg, ip administered once daily for 21 days by immunocytochemistry; assay type: functional, organism-based
[32] = Subacute toxicity in SPF Kunming mouse assessed as behavioural abnormalities at 2000 mg/kg, po administered once a day for 14 days; assay type: organism-based; details: in vivo, 336 h
[33] = Subacute toxicity in SPF Kunming mouse assessed as liver morphological changes at 2000 mg/kg, po administered once a day for 14 days by H and E staining based microscopic analysis; assay type: organism-based; details: in vivo, 336 h
[34] = Subacute toxicity in SPF Kunming mouse assessed as kidney morphological changes at 2000 mg/kg, po administered once a day for 14 days by H and E staining based microscopic analysis; assay type: organism-based; details: in vivo, 336 h

Chain of Eukaryotic translation initiation factor 4E (Homo sapiens) (P06730 whole entry): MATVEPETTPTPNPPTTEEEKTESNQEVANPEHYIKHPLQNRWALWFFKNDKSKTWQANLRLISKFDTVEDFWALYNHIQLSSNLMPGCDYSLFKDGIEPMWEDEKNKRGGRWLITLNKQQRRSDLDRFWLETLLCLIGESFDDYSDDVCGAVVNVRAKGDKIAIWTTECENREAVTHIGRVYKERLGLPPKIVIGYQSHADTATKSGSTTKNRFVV

## Fc1ccc(/C=N/Nc2nc(-c3ccc(C(F)(F)F)cc3)cs2)cc1F
Caco-2
  IC50: 14.6 µM
HepG2
  IC50: 14.5 µM
A549 [1]
  inhibition: Active
[2]
  inhibition: Active
[3]
  inhibition: Active
[4]
  inhibition: Active
[5]
  inhibition: Active
[6]
  inhibition: Active
A549 [7]
  Activity: Active
A549 [8]
  Activity: Active
A549 [9]
  Activity: Active
A549 [10]
  Activity: Active
A549 [11]
  inhibition in vivo at 25 mg/kg: 62%
[12]
  Activity: Non-Toxic
A549 [13]
  inhibition: Active
A549 [14]
  inhibition: Active
A549 [15]
  Activity: Active
A549 [16]
  inhibition: Active
A549 [17]
  inhibition: Active
[18]
  Activity: Non-Toxic
[19]
  Activity: 35 g
[20]
  Activity: Non-Toxic
[21]
  Activity: 28 g
[22]
  Activity: Non-Toxic
[23]
  Activity: Non-Toxic
[24]
  Activity: Non-Toxic
[25]
  Cmax: 149 µM
[26]
  clearance: 0.5 mL/min/kg
[27]
  half-life: 3.25 h
[28]
  MRT: 5.09 h
[29]
  AUC(0-t) at 24 h: 5.34 µM·h
[30]
  half-life: 1.27 h
A549 [31]
  inhibition: Active
[32]
  Activity: Non-Toxic
[33]
  Activity: Non-Toxic
[34]
  Activity: Non-Toxic
